Measurements: patent US10188612B2, “Pharmaceutical compositions for inhalation” (VECTURA LIMITED, priority 2000, dated 2019)

Experiment: Standard dissolution test (sintered glass disc over stirred reservoir of deionised water)
Assay type: physicochemical
Details: FIG. 2
Method: The samples were analysed in a Cecil Aquarius CE7200 ultraviolet spectrophotometer at a wavelength of 200 nm. The concentration of the samples was calculated with a previously prepared calibration graph and the concentration versus time was plotted.
The apparatus used is shown in FIG. 1 and comprises a 195 cm^3 reservoir (1) filled with deionised water (2) and having an inlet port (3) and an outlet port (4). A sintered glass disc (5) of approximately 50 mm diameter and 3 mm depth occupies an opening at the top of the reservoir (1) and sits horizontally in contact with the water (2). The water in the reservoir is stirred by a magnetic stirrer (6).
A known mass of approximately 1 mg of the formulation (7) to be tested is placed on the sinter and a timer is started. At various times, 1 cm^3 samples of the water are removed from the reservoir and are immediately replaced with 1 cm^3 deionised water to maintain the volume in the reservoir. The concentration of the active substance in the 1 cm^3 samples is determined by a suitable method.

- time at which the maximum concentration is achieved: 10 min
- concentration of active substance in the reservoir at the first time point (at 5 minutes, UV at 200 nm): greater than 10 mg/l
SMILES: C[N+]1(C)CCC(OC(=O)C(O)(c2ccccc2)C2CCCC2)C1 (centres unmarked) [glycopyrrolate]
